The results in this text go back to patent publication US9458172B2, “Pyridinyl and pyrimidinyl sulfoxide and sulfone derivatives” (priority 2012, dated 2016).

pIC50: −log10 of the molar value. Like-named read-outs stand apart in the source and are kept apart here.

Experiment [1] concerns the target NAMPT (Homo sapiens (Human), UniProt P43490). Put plainly: Biochemical Inhibition Assay (NAMPT enzymatic reaction, NMN quantified by mass spectrometry). The settings on record: 33 nM recombinant His-tagged NAMPT, 1 μM NAM, 30 min at rt. The method, boiled down: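 His-tagged human NAMPT from E. coli preincubated 15 min at rt with compound in 50 mM Hepes pH 7.5, 50 mM NaCl, 5 mM MgCl2, 1 mM THP, then reacted 30 min at rt with 1 μM NAM, […] PRPP, 2.5 mM ATP. NMN quantified by RapidFire mass spectrometry, normalized to L-Cystathionine, background subtracted.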

The test system of experiment [2] is A2780 cells. Kind of experiment: In-Vitro Cell Proliferation Assay (SRB). The settings on record: Homo sapiens, A2780, 72 h.
Experimental: Assay 2: In-Vitro Cell Proliferation Assay
Assay Method. […] The compounds were then further diluted to 10 OX final concentration in culture media, whereupon 20 μL of each dilution was added to the plated cells with controls (e.g. DMSO and blank) to make a final volume of 200 μL. The final DMSO concentration in each well was 0.1%. The plates were then incubated for 72 h at 37° C. in a 5% CO2 incubator. The number of viable cells was then assessed using sulforhodamine B (SRB) assay. Cells were fixed at 4° C. for 1 h with the addition of 50 μL 30% trichloroacetic acid (TCA) to make a final concentration of 6% TCA. The plates were washed four times with H2O and allowed to dry for at least 1 h, whereupon 100 μL of a 4% SRB in 1% acetic acid solution was added to each well and incubated at rt for at least 30 min. The plates were then washed three times with 1% acetic acid, dried, and treated with 100 μL of 10 mM Tris-Base solution. The plates were then read in a microplate reader at an absorbance of 570 nm. Background was generated on a separate plate with media only.
Determination of IC50 Values. First, the signals from the background plate were averaged, then the background was subtracted from the test plates.
The specificity of the compounds were determined via cell viability assay in the presence of the compound and either NAM or NMN Percent inhibitions were determined using the method given above.
[3] abbreviates: read-out: Cell Proliferation (IC50).
The mark [4] stands for this setting: read-out: Cell Proliferation (IC50), A2780 cells, 72 h, sulforhodamine B.

Sequence of NAMPT (P43490 whole entry): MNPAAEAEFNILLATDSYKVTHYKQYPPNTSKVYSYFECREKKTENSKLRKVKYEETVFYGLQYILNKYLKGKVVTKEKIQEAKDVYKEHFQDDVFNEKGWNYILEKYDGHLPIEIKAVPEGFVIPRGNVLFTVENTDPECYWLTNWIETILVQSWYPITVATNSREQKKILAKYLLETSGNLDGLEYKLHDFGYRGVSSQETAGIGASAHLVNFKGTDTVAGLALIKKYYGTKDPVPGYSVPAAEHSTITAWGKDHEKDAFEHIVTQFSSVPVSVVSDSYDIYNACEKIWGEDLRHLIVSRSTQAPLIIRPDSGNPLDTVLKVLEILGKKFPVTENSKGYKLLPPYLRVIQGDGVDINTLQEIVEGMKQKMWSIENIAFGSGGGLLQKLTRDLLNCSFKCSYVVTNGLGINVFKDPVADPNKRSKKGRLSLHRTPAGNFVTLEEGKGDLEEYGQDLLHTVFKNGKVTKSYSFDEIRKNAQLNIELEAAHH

`O=C(NCc1ncc(S(=O)(=O)c2ccccc2)cn1)c1cc2ccncc2s1` [Example 187, N-[[5-(benzenesulfonyl)pyrimidin-2-yl]methyl]thieno[2,3-c]pyridine-2-carboxamide]: the pIC50 was 6.36 in experiment [1] and 5.70 in experiment [2] (setting [3]).

Turning to `O=C(NCc1ccc(S(=O)(=O)c2cnc(N3CCOCC3)nc2)cn1)c1ccc2nccn2c1` [Example 167, N-[[5-(2-morpholinopyrimidin-5-yl)sulfonyl-2-pyridyl]methyl]imidazo[1,2-a]pyridine-6-carboxamide], the values for the pIC50 in experiment [1] and in experiment [2] (setting [3]) were 7.64 and 8.17, respectively.

Take `Cc1ccc(S(=O)(=O)c2ccc(CNC(=O)c3cc4ccncc4s3)nc2)cn1` [Example 95, Thieno[2,3-c]pyridine-2-carboxylic acid [5-(6-methyl-pyridine-3-sulfonyl)-pyridin-2-ylmethyl]-amide]: the pIC50 is 7.42 in experiment [1] and 6.63 in experiment [2] (setting [3]).

Turning to `O=C(NCc1ccc(S(=O)(=O)C2CCNCC2)cn1)c1ccc2nccn2c1` [Example 27, Imidazo[1,2-a]pyridine-6-carboxylic acid [5-(piperidine-4-sulfonyl)-pyridin-2-ylmethyl]-amide], the pIC50 was 6.24 in experiment [1] and 6.03 in experiment [2] (setting [3]).

For `CN1CCN(c2ccc(S(=O)(=O)c3ccc(CNC(=O)c4cnc5nccn5c4)nc3)cc2)CC1` [Example 48, Imidazo[1,2-a]pyrimidine-6-carboxylic acid {5-[4-(4-methyl-piperazin-1-yl)-benzenesulfonyl]-pyridin-2-ylmethyl)-amide], the results for the pIC50 in experiment [1] and in experiment [2] (setting [3]) were 8.64 and 8.07, respectively.

`O=C(NCc1ccc(S(=O)(=O)C2CCOCC2)cn1)c1ccc2nccn2c1` [Example 60, Imidazo[1,2-a]pyridine-6-carboxylic acid [5-(tetrahydro-pyran-4-sulfonyl)-pyridin-2-ylmethyl]-amide]: the pIC50 is 6.16 in experiment [1] and 5.89 in experiment [2] (setting [3]).

Regarding `COc1ccc(S(=O)(=O)c2ccc(CNC(=O)c3cc4ccncc4o3)nc2)cc1OC` [Example 66, Furo[2,3-c]pyridine-2-carboxylic acid [5-(3,4-dimethoxy-benzenesulfonyl)-pyridin-2-ylmethyl]-amide], the pIC50 in experiment [1] and in experiment [2] (setting [3]) was 8.55 each time.

For the compound `N#Cc1cccc(S(=O)(=O)c2ccc(CNC(=O)c3cnc4[nH]ncc4c3)nc2)c1` [Example 156, N-[[5-(3-cyanophenyl)sulfonyl-2-pyridyl]methyl]-1H-pyrazolo[3,4-b]pyridine-5-carboxamide], the pIC50 in experiment [1] was 6.34; in experiment [2] (setting [3]) it was 6.03.

As to `CC(C)n1cc(S(=O)(=O)c2ccc(CNC(=O)c3ccc4nccn4c3)nc2)cn1` [Example 44], the pIC50 is 7.52 in experiment [1] and 7.70 in experiment [2] (setting [4]).

On to `O=C(NCc1ccc(S(=O)(=O)c2cccc(OC(F)(F)F)c2)cn1)c1ccc2nccn2c1` [Example 13, Imidazo[1,2-a]pyridine-6-carboxylic acid [5-(3-trifluoromethoxy-benzenesulfonyl)-pyridin-2-ylmethyl]-amide], for which the pIC50 is 8.07 in experiment [1] and 7.87 in experiment [2] (setting [3]).

With `Cn1cc(S(=O)(=O)c2ccc(CNC(=O)c3cc4ccncc4s3)nc2)cn1` [Example 40, Thieno[2,3-c]pyridine-2-carboxylic acid [5-(1-methyl-1H-pyrazole-4-sulfonyl)-pyridin-2-ylmethyl]-amide], the pIC50 in experiment [1] was 6.87; in experiment [2] (setting [3]), 5.70.

On to `O=C(NCc1ccc(S(=O)(=O)C2CCN(CC(F)(F)F)CC2)cn1)c1cnc2nccn2c1` [Example 111, N-[[5-[[1-(2,2,2-trifluoroethyl)-4-piperidyl]sulfonyl]-2-pyridyl]methyl]imidazo[1,2-a]pyrimidine-6-carboxamide], for which the pIC50 in experiment [1] is 8.52; in experiment [2] (setting [4]) it was 7.00.

Turning to `CCCn1cc(S(=O)(=O)c2ccc(CNC(=O)c3ccc4nccn4c3)nc2)cn1` [Example 43, Imidazo[1,2-a]pyridine-6-carboxylic acid [5-(1-propyl-1H-pyrazole-4-sulfonyl)-pyridin-2-ylmethyl]-amide], the values for the pIC50 in experiment [1] and in experiment [2] (setting [3]) were 7.56 and 7.62, respectively.

As for `O=C(NCc1ccc(S(=O)(=O)N2CCCCC2)cn1)N1Cc2cn[nH]c2C1` [Example 180, N-[[5-(1-piperidylsulfonyl)-2-pyridyl]methyl]-4,6-dihydro-1H-pyrrolo[3,4-c]pyrazole-5-carboxamide], the pIC50 in experiment [1] is 6.25; in experiment [2] (setting [3]), 5.70.

For the compound `O=C(NCc1ccc(S(=O)(=O)c2cc(F)cc(F)c2)cn1)c1cnc2[nH]ncc2c1` [Example 1, 1H-Pyrazolo[3,4-b]pyridine-5-carboxylic acid [5-(3,5-difluoro-benzenesulfonyl)-pyridin-2-ylmethyl]-amide], the pIC50 was 7.25 in experiment [1] and 7.04 in experiment [2] (setting [3]).

With `O=C(NCc1ccc(S(=O)(=O)c2cccc(C(F)(F)F)c2)cn1)c1cnc2[nH]ncc2c1` [Example 16, 1H-Pyrazolo[3,4-b]pyridine-5-carboxylic acid [5-(3-trifluoromethyl-benzenesulfonyl)-pyridin-2-ylmethyl]-amide], the pIC50 in experiment [1] is 7.40; in experiment [2] (setting [3]) it was 7.79.

As to `N#Cc1cccc(S(=O)(=O)c2ccc(CNC(=O)c3ccc4nccn4c3)nc2)c1` [Example 155, N-[[5-(3-cyanophenyl)sulfonyl-2-pyridyl]methyl]imidazo[1,2-a]pyridine-6-carboxamide], the pIC50 in experiment [1] is 7.13; in experiment [2] (setting [3]), 7.05.

On to `CN(C)c1ncc(S(=O)(=O)c2ccc(CNC(=O)c3cc4ccncc4o3)nc2)s1` [Example 93, Furo[2,3-c]pyridine-2-carboxylic acid [5-(2-dimethylamino-thiazole-5-sulfonyl)-pyridin-2-ylmethyl]-amide], for which the pIC50 is 8.31 in experiment [1] and 8.94 in experiment [2] (setting [3]).

In the case of `O=C(NCc1ccc(S(=O)(=O)C2CCOCC2)cn1)c1cc2ccncc2s1` [Example 53, Thieno[2,3-c]pyridine-2-carboxylic acid [5-(tetrahydro-pyran-4-sulfonyl)-pyridin-2-ylmethyl]-amide], the pIC50 was 7.04 in experiment [1] and 6.26 in experiment [2] (setting [3]).

As for `CS(=O)(=O)c1cccc(S(=O)(=O)c2ccc(CNC(=O)c3cnc4[nH]ncc4c3)nc2)c1` [Example 134, N-[[5-(3-methylsulfonylphenyl)sulfonyl-2-pyridyl]methyl]-1H-pyrazolo[3,4-b]pyridine-5-carboxamide], the pIC50 is 7.77 in experiment [1] and 6.35 in experiment [2] (setting [3]).

As for `O=C(NCc1ccc(S(=O)(=O)c2cccc(N3CCOCC3)c2)cn1)c1cc2ccncc2o1` [Example 123, N-[[5-(3-morpholinophenyl)sulfonyl-2-pyridyl]methyl]furo[2,3-c]pyridine-2-carboxamide], the figures for the pIC50 in experiment [1] and in experiment [2] (setting [3]) were 7.66 and 7.72, respectively.

On to `O=C(NCc1ccc(S(=O)(=O)c2ccc(N3CCOCC3)nc2)cn1)c1cnc2[nH]ncc2c1` [Example 41, 1H-Pyrazolo[3,4-b]pyridine-5-carboxylic acid (5-(6-morpholin-4-yl-pyridine-3-sulfonyl)-pyridin-2-ylmethyl]-amide], for which the pIC50 in experiment [1] is 7.72; in experiment [2] (setting [3]) it was 8.14.

Regarding `O=C(NCc1ccc(S(=O)(=O)c2ccc(N3CCOCC3)cc2)cn1)c1cc2ccncc2s1` [Example 39, Thieno[2,3-c]pyridine-2-carboxylic acid [5-(4-morpholin-4-yl-benzenesulfonyl)-pyridin-2-ylmethyl]-amide], the figures for the pIC50 in experiment [1] and in experiment [2] (setting [4]) were 8.55 and 9.10, respectively.
